Key:
[1] = tested on: six bacteria (SA, HA-MRSA, CA-MRSA, EF, EC, PA); experiment: MIC against the panel of bacteria tested; format: cell-based; conditions: for antimicrobial activity: quinine- and nicotine-derived QACs, in words; for low micromolar activity: all bacteria except for P. aeruginosa
Protocol: (§1) As used herein, the term “minimum inhibitory concentration (MIC)” refers to the lowest concentration of an antimicrobial agent that will inhibit the visible growth of a microorganism after overnight incubation. MIC values against bacteria, for example, the Gram-positive Staphylococcus aureus and Enterococcus faecalis and the Gram-negative Escherichia coli and Pseudomonas aeruginosa were determined by standard methods. See also P. A. Wayne, Methods for Dilution Antimicrobial Tests for Bacteria that Grow Aerobically; Approved Standard, Ninth Edition, 2012, CLSI Document M07-A9, Vol. 32 No. 2, which is incorporated by reference herein in its entirety.
The complete set of MIC values against six bacteria [Staphylococcus aureus (SA), hospital-acquired methicillin-resistant SA (HA-MRSA), community-acquired methicillin-resistant SA (CA-MRSA), Enterococcus faecalis (EF), Escherichia coli (EC), and Pseudomonas aeruginosa (PA)] is presented in Table 3, wherein multiQACs are grouped with their monoQAC counterparts. The dye-based QACs with greatest inhibition of the complete range of Gram-positive and Gram-negative bacteria featured bis- or tris-quaternization, with the optimal alkyl total ranging from 17-24 carbons. For example, comparison of two biscationic series -LMG-n,1 and LMG-n,n—evaluates the effect of total alkyl chain length in retention of efficacy against the more challenging CA-MRSA and the Gram-negative strains EC and PA.
(§2) Compounds were serially diluted two-fold from a 10% DMSO/aqueous stock solution to yield twelve test concentrations. Overnight S. aureus, E. faecalis, E. coli, P. aeruginosa, CA-MRSA, and HA-MRSA cultures diluted to ca. 10^6 cfu/mL in Mueller-Hinton media and 100 μL were inoculated into each well of a U-bottom 96-well plate (BD Biosciences, BD351177) containing 100 μL of compound solution. Plates were incubated statically at 37° C. for 72 hours upon which time wells were evaluated visually for bacterial growth. The MIC was determined as the lowest concentration of compound resulting in no bacterial growth visible to the naked eye, based on the majority of three independent experiments. Positive and negative DMSO/aqueous solution and media controls were conducted for each trial. See Peng et al., 2011, Chem. Comm. 47:4896-4898.

[2] = tested on: MRSA biofilms (S. aureus USA300-0114); experiment: Minimum biofilm eradication concentration (MBEC), regrowth assay; format: cell-based, Staphylococcus aureus; set-up: MBEC MRSA: unit not given here; conditions: Table 5; regrowth OD under 0.1 (italics: OD < 0.5)
Protocol: (§3) A regrowth assay was used to establish the MBEC of a compound to evaluate the antibiofilm activity. See also H. Ceri, M. Olson, D. Morck, D. Storey, R. Read, A. Buret, B. Olson, Methods Enzymol. 2001, 337, 377, which is incorporated by reference herein in its entirety.
(§4) To each well of a flat-bottomed 96-well plate (Corning 3370), 8 μL of overnight bacterial culture was brought to a volume of 200 μL with fresh media (BHI for MSSA and MRSA). Plates were incubated statically for 24 hours at 37° C. to establish biofilms. After 24 hours, the wells were carefully emptied by inverting the plate and gently shaking. A pre-mixed solution of media and compound stock solution was added to each well and plates were incubated at 37° C. 16 hours after pre-established biofilms were treated with compound, the media from each well was removed, biofilms were washed three times with 200 μL PBS to remove planktonic cells, and biofilms were incubated overnight at 37° C. in 200 μL of fresh media to allow any viable cells to continue growing. The wells were then vigorously pipetted to resuspend the biofilm cells and the OD at 595 nm was measured using a plate reader (POLARstar Omega, BMG Labtech). Biofilms reaching a final OD of less than 0.1 were considered eradicated and the lowest concentration of antibiotic corresponded to the MBEC. Four replicates were completed for each concentration of compound as well as positive and negative controls.

[3] = tested on: Staphylococcus aureus (MSSA) biofilms; experiment: as above; format: cell-based; set-up: MBEC MSSA: unit not given here; conditions: Table 5; regrowth OD under 0.1 (italics: OD < 0.5)
Protocol: as §3, §4

[4] = tested on: Pseudomonas aeruginosa (PAO1); experiment: Minimum inhibitory concentration (MIC); format: cell-based
Protocol: as §1, §2
as §2, with “trial.” for “trial. See Peng et al., 2011, Chem. Comm. 47:4896-4898.”

[5] = tested on: Escherichia coli (MC4100); experiment: Minimum inhibitory concentration (MIC); format: cell-based
Protocol: as §1, §2
as §2, with “trial.” for “trial. See Peng et al., 2011, Chem. Comm. 47:4896-4898.”

[6] = tested on: Staphylococcus aureus (SA; MSSA SH1000); experiment: Minimum inhibitory concentration (MIC); format: cell-based; set-up: MIC MSSA: unit not given here; conditions: for MIC SA: Table 6
Protocol: as §1, §2
as §2, with “trial.” for “trial. See Peng et al., 2011, Chem. Comm. 47:4896-4898.”

[7] = tested on: community-acquired methicillin-resistant Staphylococcus aureus CA-MRSA (USA300-0114); experiment: Minimum inhibitory concentration (MIC); format: cell-based; set-up: MIC MRSA: unit not given here; conditions: for MIC CA-MRSA: Table 6
Protocol: as §1, §2
as §2, with “trial.” for “trial. See Peng et al., 2011, Chem. Comm. 47:4896-4898.”

[8] = tested on: Enterococcus faecalis (OG1RF); experiment: Minimum inhibitory concentration (MIC); format: cell-based; conditions: Table 6
Protocol: as §1, §2
as §2, with “trial.” for “trial. See Peng et al., 2011, Chem. Comm. 47:4896-4898.”

[9] = tested on: hospital-acquired methicillin-resistant Staphylococcus aureus HA-MRSA (ATCC 33591); experiment: Minimum inhibitory concentration (MIC); format: cell-based; conditions: Table 6
Protocol: as §1, §2
as §2, with “trial.” for “trial. See Peng et al., 2011, Chem. Comm. 47:4896-4898.”

SMILES: C[n+]1cccc([C@@H]2CCC[N+]2(C)C)c1 [N-1,1]
- antimicrobial activity [1]: essentially no antimicrobial activity

SMILES: CCCCCCCCCCCCCCCC[n+]1cccc([C@@H]2CCCN2C)c1.[Br-] [N-16,0]
- low micromolar activity [1]: 4 µM

SMILES: CCCCCCCCCCCCCCCCCC[n+]1cccc([C@@H]2CCC[N+]2(C)C)c1.[Br-].[I-] [N-18,1]
- low micromolar activity [1]: 4 µM

SMILES: CCCCCCCCCCC[N+](C)(C)CCN1CC[N+](C)(CCCCCCCCCCC)CC1 [P-11,0,11]
- MBEC MRSA [2]: 200
- MBEC MSSA [3]: 100

SMILES: CCCCCCCCCCCC[N+](C)(C)CCN1CC[N+](C)(CCCCCCCCCCCC)CC1 [P-12,0,12]
- MBEC MRSA [2]: 200
- MBEC MSSA [3]: 200

SMILES: C=CC1C[N+]2(C)CCC1C[C@H]2[C@@H](O)c1cc[n+](C)c2ccc(OC)cc12 (some centres unmarked) [Q-1,1]
- antimicrobial activity [1]: essentially no antimicrobial activity

SMILES: C=CC1C[N+]2(CCCCCCCCCCCCCC)CCC1C[C@H]2[C@@H](O)c1ccnc2ccc(OC)cc12.[Br-] (some centres unmarked) [Q-14,0]
- antimicrobial activity [1]: strongest activity

SMILES: CCCCCCCCCC[N+](C)(C)CCCN(CC[N+](C)(C)CCCCCCCCCC)CC[N+](C)(C)CCCCCCCCCC [T-10,10,10]
- MBEC MRSA [2]: 200
- MBEC MSSA [3]: 100

SMILES: CCCCCCCCCCC[N+](C)(C)CCN(CC[N+](C)(C)CCCCCCCCCCC)CC[N+](C)(C)CCCCCCCCCCC [T-11,11,11]
- MIC PA ([4]; Table 5, P. aeruginosa PAO1): 2 mm
- MIC EC ([5]; Table 5, E. coli MC4100): 1 mm
- MIC MSSA ([6]; Table 5, S. aureus SH1000): 0.5
- MBEC MRSA [2]: >200
- MIC MRSA ([7]; Table 5, S. aureus USA300-0114): 1
- MBEC MSSA [3]: 200

SMILES: C=CC[N+](CCC[N+](C)(C)CCCCCCCCCCCCCCCC)(CCC[N+](C)(C)CCCCCCCCCCCCCCCC)CCC[N+](C)(C)CCCCCCCCCCCCCCCC [sT-16,16,16,3A]
- MIC PA ([4]; Table 6): 63 µM
- MIC EF [8]: 8 µM
- MIC EC ([5]; Table 6): 16 µM
- MIC HA-MRSA [9]: 16 µM
- MIC SA [6]: 4 µM
- MIC CA-MRSA [7]: 4 µM

SMILES: CCCCCCCCCCCCCCCCCC[N+](C)(C)CCCN(CCC[N+](C)(C)CCCCCCCCCCCCCCCCCC)CCC[N+](C)(C)CCCCCCCCCCCCCCCCCC [sT-18,18,18,0]
- MIC PA ([4]; Table 6): 63 µM
- MIC EF [8]: 16 µM
- MIC EC ([5]; Table 6): 32 µM
- MIC HA-MRSA [9]: 32 µM
- MIC SA [6]: 8 µM
- MIC CA-MRSA [7]: 4 µM

SMILES: C=CC[N+](CCC[N+](C)(C)CCCCCCCCCCCCCCCCCC)(CCC[N+](C)(C)CCCCCCCCCCCCCCCCCC)CCC[N+](C)(C)CCCCCCCCCCCCCCCCCC [sT-18,18,18,3A]
- MIC PA ([4]; Table 6): 125 µM
- MIC EF [8]: 32 µM
- MIC EC ([5]; Table 6): 32 µM
- MIC HA-MRSA [9]: 16 µM
- MIC SA [6]: 2 µM
- MIC CA-MRSA [7]: 2 µM

Source: US20180111893A1, “POLYCATIONIC AMPHIPHILES AND POLYMERS THEREOF AS ANTIMICROBIAL AGENTS AND METHODS USING SAME” (Temple University-Of The Commonwealth System of Higher …, priority 2015, published 2018)
